In PubChem BioAssay (NCI):
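Briefly, cells in 96-well plates were exposed to five compound concentrations for 48 h, and endpoints were estimated by linear interpolation. TGI: concentration producing complete growth inhibition.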

How the values were obtained:
Test in all cases: inhibition of tumour cell growth, NCI panel, 48 h
HCC-2998 colon = system: HCC-2998 colon
IGROV1 ovarian = system: IGROV1 ovarian
KM12 colon = system: KM12 colon
NCI-H226 lung = system: NCI-H226 lung
ACHN renal = system: ACHN renal
SK-OV-3 ovarian = system: SK-OV-3 ovarian
RXF 393 renal = system: RXF 393 renal
OVCAR-4 ovarian = system: OVCAR-4 ovarian
DU-145 prostate = system: DU-145 prostate
OVCAR-8 ovarian = system: OVCAR-8 ovarian
SNB-19 CNS = system: SNB-19 CNS
HCT-116 colon = system: HCT-116 colon
SF-539 CNS = system: SF-539 CNS
SK-MEL-28 melanoma = system: SK-MEL-28 melanoma
SNB-75 CNS = system: SNB-75 CNS
SF-295 CNS = system: SF-295 CNS
OVCAR-5 ovarian = system: OVCAR-5 ovarian
MDA-MB-435 = system: MDA-MB-435
A549 NSCLC = system: A549 NSCLC
TK-10 renal = system: TK-10 renal
RPMI-8226 leukemia = system: RPMI-8226 leukemia
SK-MEL-2 melanoma = system: SK-MEL-2 melanoma
786-0 renal = system: 786-0 renal
NCI-H23 lung = system: NCI-H23 lung
OVCAR-3 ovarian = system: OVCAR-3 ovarian
EKVX NSCLC = system: EKVX NSCLC
SN12C renal = system: SN12C renal
HCT-15 colon = system: HCT-15 colon
MDA-N = system: MDA-N
MDA-MB-231 breast = system: MDA-MB-231 breast
HS 578T breast = system: HS 578T breast
UACC-257 melanoma = system: UACC-257 melanoma
MCF7 breast = system: MCF7 breast
UO-31 renal = system: UO-31 renal
BT-549 breast = system: BT-549 breast
HOP-62 NSCLC = system: HOP-62 NSCLC
U251 CNS = system: U251 CNS
T-47D breast = system: T-47D breast
SW-620 colon = system: SW-620 colon
M14 melanoma = system: M14 melanoma
SK-MEL-5 melanoma = system: SK-MEL-5 melanoma
HT29 colon = system: HT29 colon
SF-268 CNS = system: SF-268 CNS
COLO 205 colon = system: COLO 205 colon
UACC-62 melanoma = system: UACC-62 melanoma
MOLT-4 leukemia = system: MOLT-4 leukemia
NCI-H460 lung = system: NCI-H460 lung
NCI/ADR-RES ovarian = system: NCI/ADR-RES ovarian
A498 renal = system: A498 renal

Measured: TGI

[N-]=[N+]=NC(c1cn(C2CC(O)C(CO)O2)c(=O)[nH]c1=O)C(Cl)I (centres undefined)
> 100 µM: all assays above
